Measured values from patent US12258328B2, “6-membered heteroaryl-containing aminopyridine compounds as EGFR inhibitors” (YUHAN CORPORATION, priority 2021, dated 2025).
Like-named read-outs stand apart in the source and are kept apart here.

What was measured:
[1] = biological target: EGFR del19/C797S (Homo sapiens, UniProt P00533, C797S/DEL746-750); assay: Biochemical EGFR kinase assay (Lance Ultra TR-FRET), double mutant del19/C797S
Protocol: (§1) Biochemical EGFR kinase assays were conducted using Lance Ultra time-resolved fluorescence resonance energy transfer (TR-FRET) technology from Perkin-Elmer. Compounds of the invention were initially diluted to 20 mM in 100% DMSO for storage and made into kinase buffer solution to create a compound concentration ranging from 0.003 μM and 10 μM.
(§2) Each kinase reactions were incubated at room temperature for 1 hour and then stopped by the addition of 4 μL of stop solution (10 mM EDTA). The specific Europium-labeled-anti-phosphopeptide antibody (PerkinElmer, AD0069) diluted in LANCE detection buffer was then added to a final concentration of 2 nM. After 60 minutes incubation at room temperature the LANCE signal was measured on an EnVision Multilabel Reader (Perkin-Elmer). Excitation wavelength was set at 320 nm and emission monitored at 615 nm (donor) and 665 nm (acceptor). The IC50 values were determined using GraphPad prism software (GraphPad Software, Inc., San Diego, CA, USA).

[2] = biological target: EGFR wildtype (Homo sapiens, UniProt P00533); assay: Biochemical EGFR kinase assay (Lance Ultra TR-FRET), wildtype
Sequence of EGFR wildtype (P00533 25-1210): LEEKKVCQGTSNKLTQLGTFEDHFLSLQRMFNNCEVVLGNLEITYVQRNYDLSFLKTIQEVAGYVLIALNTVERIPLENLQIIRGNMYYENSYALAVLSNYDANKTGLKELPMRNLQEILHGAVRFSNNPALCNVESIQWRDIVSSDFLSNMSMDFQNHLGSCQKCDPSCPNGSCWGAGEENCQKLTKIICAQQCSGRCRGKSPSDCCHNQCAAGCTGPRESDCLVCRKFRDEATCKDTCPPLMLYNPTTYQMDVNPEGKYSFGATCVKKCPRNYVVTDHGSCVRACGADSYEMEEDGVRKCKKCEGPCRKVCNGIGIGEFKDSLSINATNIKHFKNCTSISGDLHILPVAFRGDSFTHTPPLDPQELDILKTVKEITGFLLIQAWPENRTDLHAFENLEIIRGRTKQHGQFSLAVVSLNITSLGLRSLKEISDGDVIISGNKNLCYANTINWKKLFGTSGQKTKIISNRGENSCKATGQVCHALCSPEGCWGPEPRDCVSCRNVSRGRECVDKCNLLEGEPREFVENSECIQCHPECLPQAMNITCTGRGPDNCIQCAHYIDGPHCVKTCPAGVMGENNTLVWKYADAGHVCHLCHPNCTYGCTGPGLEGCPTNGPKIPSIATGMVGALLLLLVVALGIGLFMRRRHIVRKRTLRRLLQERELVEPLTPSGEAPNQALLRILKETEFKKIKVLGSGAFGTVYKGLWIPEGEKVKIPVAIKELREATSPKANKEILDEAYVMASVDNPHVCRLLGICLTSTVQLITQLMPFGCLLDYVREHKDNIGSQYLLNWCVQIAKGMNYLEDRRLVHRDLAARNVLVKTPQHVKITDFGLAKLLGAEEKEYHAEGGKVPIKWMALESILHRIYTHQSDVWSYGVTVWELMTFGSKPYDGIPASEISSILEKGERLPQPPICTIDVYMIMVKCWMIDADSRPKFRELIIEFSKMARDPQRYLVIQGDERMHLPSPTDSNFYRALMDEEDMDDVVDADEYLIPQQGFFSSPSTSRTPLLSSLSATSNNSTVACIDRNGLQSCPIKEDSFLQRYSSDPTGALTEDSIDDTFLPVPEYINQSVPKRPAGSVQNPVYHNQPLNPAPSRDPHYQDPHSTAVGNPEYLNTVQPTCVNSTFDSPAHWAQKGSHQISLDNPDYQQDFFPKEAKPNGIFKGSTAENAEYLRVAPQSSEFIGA
Protocol: as §1, §2

[3] = biological target: EGFR L858R/T790M/C797S (Homo sapiens, UniProt P00533, C797S/L858R/T790M); assay: Biochemical EGFR kinase assay (Lance Ultra TR-FRET), triple mutant L858R/T790M/C797S
Sequence of EGFR L858R/T790M/C797S (P00533 25-1210 T790M/C797S/L858R): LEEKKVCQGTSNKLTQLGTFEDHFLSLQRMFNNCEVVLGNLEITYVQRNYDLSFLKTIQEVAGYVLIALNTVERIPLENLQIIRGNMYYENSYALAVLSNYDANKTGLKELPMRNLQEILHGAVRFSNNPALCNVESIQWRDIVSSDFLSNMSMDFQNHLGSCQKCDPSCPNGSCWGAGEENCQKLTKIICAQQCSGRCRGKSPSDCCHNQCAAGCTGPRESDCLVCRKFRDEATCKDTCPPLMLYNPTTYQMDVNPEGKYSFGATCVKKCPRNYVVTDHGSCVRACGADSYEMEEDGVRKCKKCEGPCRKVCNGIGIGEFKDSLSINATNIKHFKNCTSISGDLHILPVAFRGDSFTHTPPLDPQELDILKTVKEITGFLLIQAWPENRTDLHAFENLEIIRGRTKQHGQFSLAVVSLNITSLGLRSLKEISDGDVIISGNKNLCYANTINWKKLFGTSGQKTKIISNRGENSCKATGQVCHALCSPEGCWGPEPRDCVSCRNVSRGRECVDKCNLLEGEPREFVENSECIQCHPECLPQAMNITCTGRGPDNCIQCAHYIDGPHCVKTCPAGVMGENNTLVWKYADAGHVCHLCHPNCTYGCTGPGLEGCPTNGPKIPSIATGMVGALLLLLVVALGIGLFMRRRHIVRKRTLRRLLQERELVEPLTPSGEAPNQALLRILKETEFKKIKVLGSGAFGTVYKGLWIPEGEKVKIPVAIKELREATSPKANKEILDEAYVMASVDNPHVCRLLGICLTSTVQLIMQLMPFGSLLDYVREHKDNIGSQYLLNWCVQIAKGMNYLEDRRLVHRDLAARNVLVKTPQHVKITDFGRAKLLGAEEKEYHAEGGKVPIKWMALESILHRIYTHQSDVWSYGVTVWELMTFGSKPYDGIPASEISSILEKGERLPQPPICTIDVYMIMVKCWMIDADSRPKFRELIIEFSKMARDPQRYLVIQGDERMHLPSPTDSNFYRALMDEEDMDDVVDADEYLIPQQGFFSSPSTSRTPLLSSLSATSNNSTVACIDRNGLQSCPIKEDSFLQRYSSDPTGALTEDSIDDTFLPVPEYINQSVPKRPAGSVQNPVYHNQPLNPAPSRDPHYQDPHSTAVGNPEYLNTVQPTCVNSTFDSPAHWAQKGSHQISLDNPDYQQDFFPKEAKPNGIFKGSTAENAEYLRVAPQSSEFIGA
Protocol: as §1, §2

[4] = biological target: EGFR L858R/C797S (Homo sapiens, UniProt P00533, C797S/L858R); assay: Biochemical EGFR kinase assay (Lance Ultra TR-FRET), double mutant L858R/C797S
Sequence of EGFR L858R/C797S (P00533 25-1210 C797S/L858R): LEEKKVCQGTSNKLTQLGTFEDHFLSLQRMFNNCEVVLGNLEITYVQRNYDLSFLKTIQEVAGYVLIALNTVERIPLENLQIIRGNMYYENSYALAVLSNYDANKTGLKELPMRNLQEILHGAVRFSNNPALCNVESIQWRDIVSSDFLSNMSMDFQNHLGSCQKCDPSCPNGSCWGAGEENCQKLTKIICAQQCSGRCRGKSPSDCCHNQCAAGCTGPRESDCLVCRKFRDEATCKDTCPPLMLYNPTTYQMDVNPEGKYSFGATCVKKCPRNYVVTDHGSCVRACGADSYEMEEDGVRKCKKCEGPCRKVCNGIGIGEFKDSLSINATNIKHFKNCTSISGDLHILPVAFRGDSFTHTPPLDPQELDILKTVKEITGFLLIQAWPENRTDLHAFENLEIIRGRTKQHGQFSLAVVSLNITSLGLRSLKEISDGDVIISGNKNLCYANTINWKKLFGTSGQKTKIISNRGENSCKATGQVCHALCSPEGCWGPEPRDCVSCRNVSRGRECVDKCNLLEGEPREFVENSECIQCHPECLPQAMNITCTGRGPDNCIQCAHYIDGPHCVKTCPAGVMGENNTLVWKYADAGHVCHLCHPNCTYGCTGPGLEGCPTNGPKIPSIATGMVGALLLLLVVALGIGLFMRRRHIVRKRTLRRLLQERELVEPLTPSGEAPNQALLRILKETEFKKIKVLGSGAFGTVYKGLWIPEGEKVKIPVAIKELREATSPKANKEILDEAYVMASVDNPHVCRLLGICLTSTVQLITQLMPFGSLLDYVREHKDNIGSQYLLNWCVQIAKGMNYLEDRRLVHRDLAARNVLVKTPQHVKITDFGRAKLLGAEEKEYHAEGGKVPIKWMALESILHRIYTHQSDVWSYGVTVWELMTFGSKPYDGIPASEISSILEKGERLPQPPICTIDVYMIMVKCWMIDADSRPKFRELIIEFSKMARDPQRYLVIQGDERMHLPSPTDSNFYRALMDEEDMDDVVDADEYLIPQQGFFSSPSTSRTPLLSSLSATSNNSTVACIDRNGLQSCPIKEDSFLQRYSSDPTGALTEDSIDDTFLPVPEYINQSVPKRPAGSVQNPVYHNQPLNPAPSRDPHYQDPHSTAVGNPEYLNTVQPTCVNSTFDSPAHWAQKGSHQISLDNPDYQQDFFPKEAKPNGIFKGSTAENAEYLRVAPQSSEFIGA
Protocol: as §1, §2

[5] = biological target: EGFR del19/T790M/C797S (Homo sapiens, UniProt P00533, C797S/DEL746-750/T790M); assay: Biochemical EGFR kinase assay (Lance Ultra TR-FRET), triple mutant del19/T790M/C797S
Protocol: as §1, §2

[6] = IC50 del19/C797S (nM) 100 μM ATP, 100 μM ATP
[7] = Km ATP, read-out: IC50 del19/C797S (nM) Km ATP
[8] = IC50 WT (nM) 100 μM ATP, 100 μM ATP
[9] = Km ATP, read-out: IC50 WT (nM) Km ATP
[10] = IC50 L858R/T790M/C797S (nM) 100 μM ATP, 100 μM ATP
[11] = Km ATP, read-out: IC50 L858R/T790M/C797S (nM) Km ATP
[12] = IC50 L858R/C797S (nM) 100 μM ATP, 100 μM ATP
[13] = Km ATP, read-out: IC50 L858R/C797S (nM) Km ATP
[14] = IC50 del19/T790M/C797S (nM) 100 μM ATP, 100 μM ATP
[15] = Km ATP, read-out: IC50 del19/T790M/C797S (nM) Km ATP

Sequence of EGFR del19/C797S (P00533 with tags, fused parts or gaps DEL746-750/C797S): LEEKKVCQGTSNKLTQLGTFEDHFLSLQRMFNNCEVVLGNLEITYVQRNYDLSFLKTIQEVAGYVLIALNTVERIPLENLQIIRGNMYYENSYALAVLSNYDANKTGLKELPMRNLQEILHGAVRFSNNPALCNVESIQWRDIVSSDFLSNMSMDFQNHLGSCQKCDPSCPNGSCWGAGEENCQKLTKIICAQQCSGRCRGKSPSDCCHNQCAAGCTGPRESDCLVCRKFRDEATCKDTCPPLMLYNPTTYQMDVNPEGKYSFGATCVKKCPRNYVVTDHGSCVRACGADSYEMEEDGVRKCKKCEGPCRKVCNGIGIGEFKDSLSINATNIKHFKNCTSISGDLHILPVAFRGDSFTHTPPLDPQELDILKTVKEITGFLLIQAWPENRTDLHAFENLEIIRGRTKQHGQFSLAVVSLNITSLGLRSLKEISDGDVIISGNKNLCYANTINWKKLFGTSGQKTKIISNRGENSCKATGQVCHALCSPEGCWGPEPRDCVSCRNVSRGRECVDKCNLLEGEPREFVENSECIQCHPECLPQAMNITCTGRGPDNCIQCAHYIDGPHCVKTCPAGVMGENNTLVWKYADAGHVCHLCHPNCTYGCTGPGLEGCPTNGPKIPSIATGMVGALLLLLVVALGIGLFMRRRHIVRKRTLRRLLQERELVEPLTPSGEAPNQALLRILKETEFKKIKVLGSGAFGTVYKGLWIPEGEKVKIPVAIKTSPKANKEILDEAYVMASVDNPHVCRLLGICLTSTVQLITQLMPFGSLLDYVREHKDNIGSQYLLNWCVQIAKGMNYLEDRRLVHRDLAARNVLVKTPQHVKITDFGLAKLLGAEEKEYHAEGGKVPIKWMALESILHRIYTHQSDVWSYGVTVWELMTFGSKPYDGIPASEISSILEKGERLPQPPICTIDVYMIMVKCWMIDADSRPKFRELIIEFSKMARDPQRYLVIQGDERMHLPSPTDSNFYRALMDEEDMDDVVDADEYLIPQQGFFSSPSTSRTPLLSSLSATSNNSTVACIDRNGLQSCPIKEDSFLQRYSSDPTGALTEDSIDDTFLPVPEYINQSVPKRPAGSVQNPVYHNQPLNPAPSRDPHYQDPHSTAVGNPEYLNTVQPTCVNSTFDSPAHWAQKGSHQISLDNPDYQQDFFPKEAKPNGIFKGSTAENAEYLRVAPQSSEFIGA

Structure (SMILES)	IC50 [1, 6] [nM]	IC50 [1, 7] [nM]	IC50 [2, 8] [nM]	IC50 [2, 9] [nM]	IC50 [3, 10] [nM]	IC50 [3, 11] [nM]	IC50 [4, 12] [nM]	IC50 [4, 13] [nM]	IC50 [5, 14] [nM]	IC50 [5, 15] [nM]
CN(C)Cc1ccc(-c2cnc(Nc3ccnc(-c4cnn(S(=O)(=O)C5CC5)c4)n3)cc2N[C@H]2CC[C@@](C)(O)CC2)nc1 [Example 31, (1s,4s)-4-((6′-((2-(1-(Cyclopropylsulfonyl)-1H-pyrazol-4-yl)pyrimidin-4-yl)amino)-5-((dimethylamino)methyl)-[2,3′-bipyridin]-4′-yl)amino)-1-methylcyclohexan-1-ol]	0.1	0.1	52.6	0.3	0.1	0.1	0.8	0.1	0.2	0.2
C[C@]1(O)CC[C@@H](Nc2cc(Nc3ccnc(-c4cnn(S(=O)(=O)C5CC5)c4)n3)ncc2-c2ccc(CN3CCOCC3)cn2)CC1 [Example 32, (1s,4s)-4-((6′-((2-(1-(Cyclopropylsulfonyl)-1H-pyrazol-4-yl)pyrimidin-4-yl)amino)-5-(morpholinomethyl)-[2,3′-bipyridin]-4′-yl)amino)-1-methylcyclohexan-1-ol]	0.1	0.2	120	0.3	0.3	0.2	1.9	0.1	0.4	0.2
C[C@]1(O)CC[C@@H](Nc2cc(Nc3ccnc(-c4cnn(S(=O)(=O)C5CC5)c4)n3)ncc2-c2ccc(CN3CCC(F)(F)CC3)cn2)CC1 [Example 33, (1s,4s)-4-((6′-((2-(1-(Cyclopropylsulfonyl)-1H-pyrazol-4-yl)pyrimidin-4-yl)amino)-5-((4,4-difluoropiperidin-1-yl)methyl)-[2,3′-bipyridin]-4′-yl)amino)-1-methylcyclohexan-1-ol]	1.3	2.1	813	7.9	3.1	1.7	29.3	1.7	3.9	2.6
CC(C)N1CCN(Cc2ccc(-c3cnc(Nc4ccnc(-c5cnn(S(=O)(=O)C6CC6)c5)n4)cc3N[C@H]3CC[C@@](C)(O)CC3)nc2)CC1 [Example 34, (1s,4s)-4-((6′-((2-(1-(Cyclopropylsulfonyl)-1H-pyrazol-4-yl)pyrimidin-4-yl)amino)-5-((4-isopropylpiperazin-1-yl)methyl)-[2,3′-bipyridin]-4′-yl)amino)-1-methylcyclohexan-1-ol]	0.4	0.2	61.1	0.5	0.3	0.1	0.2	0.1	0.6	0.6
C[C@]1(O)CC[C@@H](Nc2cc(Nc3ccnc(-c4cnn(S(=O)(=O)C5CC5)c4)n3)ncc2-c2ccccn2)CC1 [Example 35, (1s,4s)-4-((6′-((2-(1-(Cyclopropylsulfonyl)-1H-pyrazol-4-yl)pyrimidin-4-yl)amino)-[2,3′-bipyridin]-4′-yl)amino)-1-methylcyclohexan-1-ol]	0.2	0.3	811		0.3	0.2		0.3	0.3	0.6
O=S(=O)(C1CC1)n1cc(-c2nccc(Nc3cc(N[C@H]4CC[C@@H](NCCF)CC4)c(-c4ccccn4)cn3)n2)cn1 [Example 36, N^6′-(2-(1-(Cyclopropylsulfonyl)-1H-pyrazol-4-yl)pyrimidin-4-yl)-N^4′-((1s,4s)-4-((2-fluoroethyl)amino)cyclohexyl)-[2,3′-bipyridine]-4′,6′-diamine]	0.9	0.5	3080	5.8	0.1	0.1	15.7	1	0.2	0.1
O=S(=O)(C1CC1)n1cc(-c2nccc(Nc3cc(N[C@H]4CC[C@](O)(CO)CC4)c(-c4ccccn4)cn3)n2)cn1 [Example 37, (1s,4s)-4-((6′-((2-(1-(Cyclopropylsulfonyl)-1H-pyrazol-4-yl)pyrimidin-4-yl)amino)-[2,3′-bipyridin]-4′-yl)amino)-1-(hydroxymethyl)cyclohexan-1-ol]	1.1	0.7	> 10000	6.6	0.3	0.1	21.3	0.7	0.2	0.2
C[C@]1(O)CC[C@@H](Nc2cc(Nc3ccnc(-c4cnn(S(=O)(=O)C5CC5)c4)n3)ncc2-c2ccc(N3CCOCC3)cn2)CC1 [Example 38, (1s,4s)-4-((6′-((2-(1-(Cyclopropylsulfonyl)-1H-pyrazol-4-yl)pyrimidin-4-yl)amino)-5-morpholino-[2,3′-bipyridin]-4′-yl)amino)-1-methylcyclohexan-1-ol]	0.6	0.3	1430		0.7	0.2	4.3	0.9	0.4	
CN(C)c1cnc(-c2cnc(Nc3ccnc(-c4cnn(S(=O)(=O)C5CC5)c4)n3)cc2N[C@H]2CC[C@@](C)(O)CC2)nc1 [Example 39, (1s,4s)-4-((2-((2-(1-(Cyclopropylsulfonyl)-1H-pyrazol-4-yl)pyrimidin-4-yl)amino)-5-(5-(dimethylamino)pyrimidin-2-yl)pyridin-4-yl)amino)-1-methylcyclohexan-1-ol]		2.5	> 10000	26	0.7	0.4	74.8	8.7	2.1	1
CN(C)c1ccc(-c2cnc(Nc3ccnc(-c4cnn(S(=O)(=O)C5CC5)c4)n3)cc2N[C@H]2CC[C@@](C)(O)CC2)nc1 [Example 40, (1s,4s)-4-((6′-((2-(1-(Cyclopropylsulfonyl)-1H-pyrazol-4-yl)pyrimidin-4-yl)amino)-5-(dimethylamino)-[2,3′-bipyridin]-4′-yl)amino)-1-methylcyclohexan-1-ol]	3.2	2.3	1440	5	1.7	0.5	7.7	1.7	2.1	0.7
CN(C)c1ccnc(-c2cnc(Nc3ccnc(-c4cnn(S(=O)(=O)C5CC5)c4)n3)cc2N[C@H]2CC[C@@](C)(O)CC2)n1 [Example 41, (1s,4s)-4-((2-((2-(1-(Cyclopropylsulfonyl)-1H-pyrazol-4-yl)pyrimidin-4-yl)amino)-5-(4-(dimethylamino)pyrimidin-2-yl)pyridin-4-yl)amino)-1-methylcyclohexan-1-ol]	5.1	4.5	> 10000	43.6	0.9	0.2	523	4	0.8	0.3
C[C@]1(O)CC[C@@H](Nc2cc(Nc3ccnc(-c4cnn(S(=O)(=O)C5CC5)c4)n3)ncc2-c2cccnn2)CC1 [Example 42, (1s,4s)-4-((2-((2-(1-(Cyclopropylsulfonyl)-1H-pyrazol-4-yl)pyrimidin-4-yl)amino)-5-(pyridazin-3-yl)pyridin-4-yl)amino)-1-methylcyclohexan-1-ol]	0.2	0.3	1360		0.1	0.03	2.3	0.4	0.1	0.1
C[C@]1(O)CC[C@@H](Nc2cc(Nc3ccnc(-c4cnn(S(=O)(=O)C5CC5)c4)n3)ncc2-c2ccc(N3CCOCC3)nn2)CC1 [Example 43, (1s,4s)-4-((2-((2-(1-(Cyclopropylsulfonyl)-1H-pyrazol-4-yl)pyrimidin-4-yl)amino)-5-(6-morpholinopyridazin-3-yl)pyridin-4-yl)amino)-1-methylcyclohexan-1-ol]	0.5	0.4	1560	2	2.7	0.1	1.6	0.6	2.5	0.1
